What was measured:
ob/ob mice [1] = experiment: Pathologic analysis of pancreas, liver and muscle of ob/ob mice; format: in vivo; conditions: vs PBS
Method: The liver, pancreas, and muscle were removed from control or treated mice and placed in 4% formalin followed by paraffin embedding. Five sections were prepared from each organ. The tissues were stained for heamtoxylin eosin and liver sections were additionally stained with oil-red-o. All sections were blindly scored by a pathologist.
The inventors next investigated the beneficial effect of the combined oral composition of anti-CD3 plus GC treatment of ob/ob mice by pathologic analysis of pancreas, liver and muscle. […] In addition, a reversal of muscle fiber thinning and increased nuclei was clearly observed in animals treated with the oral combination of anti-CD3 plus GC.

ob/ob mice [2] = experiment: Metabolic syndrome model in ob/ob mice: serum glucose, AST, ALT, cholesterol, weight after oral feeding; format: in vivo
Method: Mice were fed a total volume of 0.2 ml by gastric intubation with an 18-gauge stainless steel feeding needle (Thomas Scientific). Mice were fed once a day for five consecutive days with either phosphate-buffered saline (PBS), hamster isotype control (IC 5 μg/feeding), anti CD3 antibody (5 ug/feeding), or β-glucosylceramide (GC), 100 μg/feeding (dissolved in ethanol and emulsified in PBS). Mice fed with the combination of anti-CD3 and GC received 5 ug anti-CD3 and 100 ug GC in 0.2 ml PBS. Mice were injected IP with 100 μg anti TGF-β one day before the feeding and than on alternative days another 4 injections, a total of 500 μg.
Sera from individual mice were obtained. Serum AST and ALT levels were measured by an automatic analyzer.
In order to investigate the potential effect of combining two different immune-modulatory compounds on an immune-related disorder such as the metabolic syndrome, the ob/ob leptin deficient mice that manifest insulin resistance, hypelipidemia, fatty liver, and diabetes, were used as an animal model.
Four groups of ob/ob mice were tested, groups 1 and 2 served as control groups (group of untreated mice and group of mice treated with GC and Isotype Control, respectively), group 3 were treated with anti CD3 (5 microgram) antibody and group 4 were orally administered with a combination of anti-CD3 (5 μg) antibody and β-glucosylceramide (GC, 100 μg) per dose for five consecutive days. Animals were assessed on days 10 and 28. The doses studied were based on previous studies of anti-CD3 and GC in animal models [Ochi, H., et al. Nat. Med. 12:627-635 (2006); Zigmond, E. et al. Gut 56:82-89 (2007); Ilan, Y. et al. Transplantation 83:458-467 (2007)]. Determination of hepatic fat content and inflammation was performed by measurement of serum Alanine aminotransferase (ALT) and Aspartate aminotransferase (AST) levels. Serum glucose and cholesterol levels were also assessed.

MLN cells = experiment: Cytokine production (ELISA) by MLN cells or splenocytes of fed ob/ob mice stimulated in vitro with anti-CD3; format: in vivo; conditions: in vitro 1 μg/ml anti-CD3 stimulation; vs PBS
Method: For cytokine assays, splenocytes or MLN cells were grown (10^6 cells per well) in serum-free medium X-VIVO 20 (BioWhittaker) with 1 ug/ml soluble anti-CD3 antibody. Supernatants were collected after 40 h for IL-2, IL-4, IL6, IL-10, IFN-γ, and IL-17, or after 72 h for TGF-β and quantitative ELISA was performed using paired antibodies and recombinant cytokines obtained from PharMingen according to their recommendations. When purified T-cells ([…] cells per well) were checked for cytokine secretion, they were stimulated with 1 ug/ml anti-CD3 in the presence of DCs (10×10^3 cells per well) for 40 or 72 h and the cytokine content in the supernatant was measured as outlined above. The tissue cytokine profile was determined for gut, liver, and pancreas. Part of the organ was weighed and homogenized on ice with TISSUEMISER (Fisher Scientific) in buffer containing PBS/BSA/TWEEN and protein inhibitor tablets (Roche). […]
To investigate the potential mechanisms by which oral combination of anti-CD3 plus GC affected the metabolic abnormalities describe above, the inventors next measured cytokine production by MLN cells obtained from the different experimental groups, that were then stimulated in vitro with 1 μg/ml anti-CD3 for five days. […] The inventors next measured cytokine levels in supernatants from homogenized tissues from ob/ob treated mice. […]

DCs from MLN = experiment: TGF-β and IL-10 expression in CD11C+ DCs from MLN by RT PCR; format: in vivo, mice; conditions: RT PCR relative to GAPDH; 3 days after feeding; reversed by anti-TGF-β
Method: MLN CD11C+ DCs were isolated by magnetic separation using anti CD11C microbeads (Miltenyi Biotec). Total RNA was isolated from cell pellets using the RNA easy Mini Kit (QIAGEN) and stored at −80° C. First strand cDNA synthesis was performed on 0.5-1 μg of total RNA for each RNA sample using Taqman reverse transcription reagents. The cDNA was amplified using sequence specific primers for IL-10, and TGF-β and real-time PCR mix (Applied Biosystems) in an ABI7500 cycler. The GAPDH gene was used as an endogenous control to normalize for differences in the amount of total RNA in each sample. All values were expressed as a fold increase or decrease relative to the expression of GAPDH.
To investigate the effect of feeding the anti-CD3 plus GC combination on DCs, the inventors first measured the expression of TGF-β and IL-10 in DCs from MLN. […] Injection of anti-TGF-β reversed the effect. The inventors then investigated the effect of DCs obtained from animals treated with the oral combination of anti-CD3 plus GC, or from the control PBS treated animals, on T-cells harvested from mice fed either with PBS or with the combination of anti-CD3 plus GC. T cells were stimulated with anti-CD3 in vitro. […]

β-glucosylceramide [GC] was tested, and the hepatic fat accumulation (ob/ob mice [1]) was “some effect”, the pancreatic hyperplasia (ob/ob mice [1]) was “some effect” and the weight of animals (ob/ob mice [2]; compared to control) was “No change”. For the same substance, the “serum AST levels” value (ob/ob mice [2]; ob/ob mice fed daily for 5 days, 10 days after last feeding, PBS 416 U/l) was 310 U/l, the Serum cholesterol levels (ob/ob mice [2]; ob/ob mice fed daily for 5 days, PBS 218 mg %) was 225 mg % and the blood glucose (ob/ob mice [2]; ob/ob mice fed daily for 5 days, tested 10 days after last feeding, PBS 367 mg %) was 337 mg %. For the same substance, the “production of IL-10 by MLN cells” value (MLN cells) was “No effects”, the “production of TGF-β by MLN cells” value (MLN cells) was “No effects” and the “IL-10 expression in DCs from MLN” value (DCs from MLN) was “not”. The “TGF-β expression in DCs from MLN” value (DCs from MLN) was “not”.

— patent US9981037B2, “Combination therapy of beta-glycolipids and antibodies for the treatment of immune-related disorders” (HADASIT MEDICAL RESEARCH SERVICES AND DEVELOPMENT LTD., priority 2008, dated 2018)
